In US20250127727A1, “IONIZABLE LIPIDS WITH BIOACTIVE MOTIFS” (GEORGIA TECH RESEARCH CORPORATION, priority 2021, published 2025):

Tested on: Ai14 mice
Test: Normalized delivery and fold enrichment from DNA barcode sequencing of tdTomato+ cells
Assay type: in vivo
Details: by LNP component; pool of 65 LNPs
Procedure: Following characterization of the pool of 65 Pi-LNPs, the LNPs were injected into Ai14 mice at a total nucleic dose of 1.5 mg/kg (averaging a 0.023 mg total nucleic acid/kg/particle, for all 65 Pi-LNPs) (FIG. 2A). The Ai14 mice have a Lox-Stop-Lox-tdTomato construct downstream of a CAG promoter. Thus, if Cre mRNA is delivered into a target cell and is subsequently functionally translated into Cre protein, the cells become tdTomato+ (FIG. 2A). By isolating tdTomato+ cells using fluorescence-activated cell sorting (FACS, FIG. 4, FIG. 5) and sequencing the cells using next-generation sequencing, it was possible to isolate the DNA barcodes, associated with specific LNPs, within cells that were functionally transfected with Cre mRNA 26, 36-38 Three days after injection, liver, spleen, lung, and kidney were isolated and quantified the percentage of tdTomato+ cells from 14 different cell populations (FIG. 2B). […] The percentage of tdTomato+ quantified in liver endothelial cells and dendritic cells was <5%, and no delivery in lung and kidney was observed. […] From the barcode raw counts obtained through sequencing, the normalized delivery of each individual barcode was calculated. Briefly, the normalized delivery of a given barcode was calculated as the number of counts for that barcode divided by the counts for all N barcodes (Tables 1-3, below). […]

CC(C)CCC[C@@H](C)[C@H]1CC[C@H]2[C@@H]3CC=C4C[C@@H](O)CC[C@]4(C)[C@H]3CC[C@]12C [cholesterol]
fold enrichment (odds of being in top or bottom 10% of LNPs): outperformed 20α-OH cholesterol
